# Measured values taken from ChEMBL document CHEMBL1135131, “Nicotinanilides as inhibitors of neutrophil chemotaxis” (Bioorg Med Chem Lett, 2002).
# Columns and labels:
# [1] = target: T1, Interleukin-8 receptors, CXCR1/CXCR2 (Homo sapiens, UniProt P25025+P25024); assay: Inhibition against GRO-alpha driven human neutrophil chemotaxis; type: functional
# T1 sequence (P25025 whole entry): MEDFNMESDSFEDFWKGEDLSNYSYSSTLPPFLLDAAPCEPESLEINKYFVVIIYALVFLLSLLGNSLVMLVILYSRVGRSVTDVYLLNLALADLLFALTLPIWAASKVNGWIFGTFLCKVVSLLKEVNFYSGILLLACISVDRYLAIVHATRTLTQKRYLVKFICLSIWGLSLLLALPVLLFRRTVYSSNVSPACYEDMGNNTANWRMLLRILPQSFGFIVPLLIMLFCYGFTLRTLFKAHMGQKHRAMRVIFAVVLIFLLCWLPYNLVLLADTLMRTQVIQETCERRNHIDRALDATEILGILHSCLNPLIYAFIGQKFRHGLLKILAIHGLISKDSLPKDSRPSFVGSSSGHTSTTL
# T1 sequence (P25024 whole entry): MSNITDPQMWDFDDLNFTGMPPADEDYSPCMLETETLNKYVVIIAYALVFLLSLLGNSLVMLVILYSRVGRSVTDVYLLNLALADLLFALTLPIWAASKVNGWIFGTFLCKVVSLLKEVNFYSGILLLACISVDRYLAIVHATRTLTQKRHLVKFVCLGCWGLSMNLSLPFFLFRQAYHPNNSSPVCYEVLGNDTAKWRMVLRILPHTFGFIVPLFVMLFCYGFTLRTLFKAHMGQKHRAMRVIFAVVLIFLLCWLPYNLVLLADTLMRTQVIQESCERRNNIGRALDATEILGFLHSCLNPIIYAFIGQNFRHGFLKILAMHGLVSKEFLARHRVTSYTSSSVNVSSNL
# [2] = Inhibition against formyl-methionyl-leucyl (FMLP) phenylalanine driven human neutrophil chemotaxis; type: functional
# [3] = target: T2, C-X-C chemokine receptor type 2 (Homo sapiens, UniProt P25025); assay: Displacement of [125I]IL-8 from CHO cell membranes expressing human […] chemokine receptor 2 (CXCR2 filter mat binding assay)
# T2 sequence (P25025 whole entry): T1 sequence (P25025 whole entry)
# [4] = target: T2, C-X-C chemokine receptor type 2; assay: Displacement of [125I]IL-8 from CHO cell membranes expressing human […] chemokine receptor 2
SMILES,IC50 [1],IC50 [2],IC50 [3],IC50 [4]
CCOC(=O)COc1ccc(C(=O)Nc2ccc(F)cc2)cn1,160 nM,> 40000 nM,,
CNC(=O)COc1ccc(C(=O)Nc2ccc(F)cc2)cn1,> 20000 nM,,,
O=C(CSc1ccc(C(=O)Nc2ccc(F)cc2)cn1)OCc1cccc(F)c1,43 nM,,,
O=C(O)CCSc1ccc(C(=O)Nc2ccc(F)cc2)cn1,> 20000 nM,,,
CN(C(=O)COc1ccc(C(=O)Nc2ccc(F)cc2)cn1)c1ccccc1,12500 nM,> 40000 nM,,
O=C(CSc1ccc(C(=O)Nc2ccc(F)cc2)cn1)OCc1ccc(Br)cc1,83 nM,,,
CC(C)CCOC(=O)COc1ccc(C(=O)Nc2ccc(F)cc2)cn1,200 nM,> 40000 nM,,
O=C(COc1ccc(C(=O)Nc2ccc(F)cc2)cn1)OCCCCC1CCCCC1,680 nM,> 40000 nM,,
O=C(O)CSc1ccc(C(=O)Nc2ccc(F)cc2)cn1,> 20000 nM,,1200 nM,
COC(=O)CSc1ccc(C(=O)Nc2ccc(F)cc2)cn1,42 nM,,,32 nM
O=C(COc1ccc(C(=O)Nc2ccc(F)cc2)cn1)NC1CCCC1,> 20000 nM,,,
O=C(COc1ccc(C(=O)Nc2ccc(F)cc2)cn1)OCc1cccc(F)c1,50 nM,> 40000 nM,,
O=C(COc1ccc(C(=O)Nc2ccc(F)cc2)cn1)Oc1ccccc1,410 nM,,,
O=C(COc1ccc(C(=O)Nc2ccc(F)cc2)cn1)OCc1ccccc1,94 nM,> 40000 nM,,
O=C(COc1ccc(C(=O)Nc2ccc(F)cc2)cn1)Nc1cccc(Br)c1,2700 nM,> 40000 nM,,
CCCOC(=O)CSc1ccc(C(=O)Nc2ccc(F)cc2)cn1,46 nM,> 40000 nM,,
O=C(COc1ccc(C(=O)Nc2ccc(F)cc2)cn1)Nc1cccnc1,220 nM,> 40000 nM,,
O=C(COc1ccc(C(=O)Nc2ccc(F)cc2)cn1)Nc1ccccc1,1000 nM,> 40000 nM,,
COC(=O)COc1ccc(NC(=O)c2ccc(F)cc2)cn1,360 nM,,,
O=C(COc1ccc(C(=O)Nc2ccc(F)cc2)cn1)OC1CCCCC1,220 nM,> 40000 nM,,
COC(=O)COc1ccc(C(=O)Nc2ccc(F)cc2)cn1,110 nM,> 40000 nM,,
COC(=O)CCSc1ccc(C(=O)Nc2ccc(F)cc2)cn1,760 nM,> 40000 nM,,
O=C(O)CCCSc1ccc(C(=O)Nc2ccc(F)cc2)cn1,5100 nM,,,
